The values that follow come from patent US5260060A, “Fibrinolytic enzymes” (priority 1991, dated 1993).

pKi: −log10 of the molar value.

The target in one test is Accfib (Agkistrodon contortrix contortrix, UniProt P28891). The test is described as follows: biochemical.
The target of a further test is T1, thermolysin (Bacillus thermoproteolyticus, UniProt P00800).
T1 sequence (P00800 233-548): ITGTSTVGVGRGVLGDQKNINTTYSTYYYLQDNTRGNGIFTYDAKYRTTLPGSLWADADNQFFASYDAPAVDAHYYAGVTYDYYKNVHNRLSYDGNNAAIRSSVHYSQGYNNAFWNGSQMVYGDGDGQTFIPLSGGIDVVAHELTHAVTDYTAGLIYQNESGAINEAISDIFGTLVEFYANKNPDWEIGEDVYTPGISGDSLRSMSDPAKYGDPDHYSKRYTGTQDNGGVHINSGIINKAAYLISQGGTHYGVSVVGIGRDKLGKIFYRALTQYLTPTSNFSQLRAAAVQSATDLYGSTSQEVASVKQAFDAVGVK
As to conditions: cited from earlier work.

Sequence of Accfib (P28891 whole entry, looked up): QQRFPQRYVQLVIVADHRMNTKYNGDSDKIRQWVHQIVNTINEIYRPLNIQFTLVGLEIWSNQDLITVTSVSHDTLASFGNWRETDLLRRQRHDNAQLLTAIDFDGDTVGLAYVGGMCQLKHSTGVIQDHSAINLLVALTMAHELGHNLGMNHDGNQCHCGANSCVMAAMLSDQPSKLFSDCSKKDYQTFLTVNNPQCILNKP

The term pKi denotes the negative decadic logarithm of the Ki, by convention in mol/L. `CC(C)CC(C(=O)NO)C(=O)N[C@@H](C)C(=O)NCC(N)=O` (stereo partly drawn) [Zincov, 2-(N-hydroxycarboxamido)-4-methylpentanoyl-L-alanyl-glycine amide]: the figures for the pKi on Accfib and at thermolysin were 1.80 and 6.32, respectively.
